Measured values as given in patent US20230146233A1, “A CLASS OF POLYCYCLIC COMPOUNDS INHIBITING RNA HELICASE DHX33 AND THE APPLICATION THEREOF” (Shenzhen KeYe Life Technologies, Co., Ltd, priority 2020, published 2023).

The molecules below were run on U251-MG cells (assay: Half-maximal cell-inhibitory concentration on U251-MG cells (CCK-8)). Conditions: Homo sapiens, U-251, U251-MG cells (DHX33-overexpressing cancer cell strain), 48 hours, read-out: IC50 (half-maximal inhibitory concentrations of compounds on U251-MG cells).
Assay type: cell-based
Experimental: U251-MG cells were purchased from the cell bank of the Chinese Academy of Sciences. Cells were cultured in MEM medium containing 10% fetal bovine serum (FBS), 2 mM L-glutammie, streptomycmn and penicillin. The growth conditions were set as follows: a humidified cell incubator (37° C., 5% CO2). Cells were passaged every 3 days and were discarded after 10 passages.
U251-MG cells (a […]-overexpressing cancer cell strain) were seeded on a 96-well plate at 1×10^4 cells/100 μl/well. After the cells were completely attached, the compounds were added to the cell culture medium at a concentration of 5 nM, 10 nM, 25 nM, 50 nM, 100 nM, […], 500 nM, 1000 nM, 2000 nM, […] or 20 μM, and the resulting mixture was uniformly mixed with a multichannel pipette. After the cells were incubated with the compound for 48 hours, CCK-8 reagent (Yeasen Biotechnology (Shanghai) Co., Ltd.) was added to the medium in the 96-well plate in accordance with the standard procedure. After being incubated for 2 hours, the plate was read with a microplate reader (OD=450 nm). The experiment was repeated three times, the inhibition curve of the compound at different concentrations was plotted, and the half-maximal inhibitory concentration (IC50) of the compound was calculated.

Compound | IC50
COc1ccnc2nc(/C(C#N)=C/c3cc(C)n(-c4sc(C)c(C)c4C#N)c3C)[nH]c12 [AB24310, (E)-2-(3-(2-cyano-2-(7-methoxy-1H-imidazo[4,5-b]pyridin-2-yl)vinyl)-2,5-dimethyl-1H-pyrrol-1-yl)-4,5-dimethylthiophene-3-carbonitrile] | 5000 to 20000 nM
COC(=O)c1c(-n2c(C)cc(/C=C(\C#N)c3nc4cc(OC)ncc4[nH]3)c2C)sc(C)c1C [AB24316] | 100 to 1000 nM
COc1cc2nc(/C(C#N)=C/c3cc(C)n(-c4sc(C)nc4C)c3C)[nH]c2cn1 [AB24319] | 100 to 1000 nM
CCOC(=O)c1cc(C#N)c(-n2c(C)cc(/C=C(\C#N)c3nc4cc(OC)ncc4[nH]3)c2C)s1 [AB24320] | 1000 to 5000 nM
COc1cc2nc(/C(C#N)=C/c3cc(C)n(-c4sc(C(C)C)cc4C#N)c3C)[nH]c2cn1 [AB24325, (E)-2-(3-(2-cyano-2-(6-methoxy-3H-imidazo[4,5-c]pyridin-2-yl)vinyl)-2,5-dimethyl-1H-pyrrol-1-yl)-5-isopropylthiophene-3-carbonitrile] | 100 to 1000 nM
COc1cc2nc(/C(C#N)=C/c3cc(C)n(-c4sc(C(C)(C)C)cc4C#N)c3C)[nH]c2cn1 [AB24326] | 100 to 1000 nM
COc1cc2nc(/C(C#N)=C/c3cc(C)n(-c4sc(Cc5ccccc5)cc4C#N)c3C)[nH]c2cn1 [AB24328, (E)-5-benzyl-2-(3-(2-cyano-2-(6-methoxy-3H-imidazo[4,5-c]pyridin-2-yl)vinyl)-2,5-dimethyl-1H-pyrrol-1-yl)thiophene-3-carbonitrile] | 100 to 1000 nM
COc1cc2nc(/C(C#N)=C/c3cnn(-c4sc(C)cc4C#N)c3C)[nH]c2cn1 [AB24334, (E)-2-(4-(2-cyano-2-(6-methoxy-3H-imidazo[4,5-c]pyridin-2-yl)vinyl)-5-methyl-1H-pyrazol-1-yl)-5-methylthiophene-3-carbonitrile] | 100 to 1000 nM
COc1cc2nc(/C(C#N)=C/c3cc(C)n(-c4sc(-c5cccnc5)cc4C#N)c3C)[nH]c2cn1 [AB24337] | 1000 to 5000 nM
COc1cc2nc(/C(C#N)=C/c3cc(C)n(-c4sc(-c5ccncc5)cc4C#N)c3C)[nH]c2cn1 [AB24338] | 1000 to 5000 nM

The next lines start with the values.

IC50 | Compound
< 100 nM | COC(=O)c1cc(C)sc1-n1c(C)cc(/C=C(\C#N)c2nc3cc(OC)ncc3[nH]2)c1C [AB24311, methyl (E)-2-(3-(2-cyano-2-(6-methoxy-3H-imidazo[4,5-c]pyridin-2-yl)vinyl)-2,5-dimethyl-1H-pyrrol-1-yl)-5-methylthiophene-3-carboxylate]
100 to 1000 nM | COc1cc2nc(/C(C#N)=C/c3cc(C)n(-c4sc(C)cc4C(N)=O)c3C)[nH]c2cn1 [AB24313, (E)-2-(3-(2-cyano-2-(6-methoxy-3H-imidazo[4,5-c]pyridin-2-yl)vinyl)-2,5-dimethyl-1H-pyrrol-1-yl)-5-methylthiophene-3-carboxamide]
< 100 nM | CCc1cc(C#N)c(-n2c(C)cc(/C=C(\C#N)c3nc4cc(OC)ncc4[nH]3)c2C)s1 [AB24317, (E)-2-(3-(2-cyano-2-(6-methoxy-3H-imidazo[4,5-c]pyridin-2-yl)vinyl)-2,5-dimethyl-1H-pyrrol-1-yl)-5-ethylthiophene-3-carbonitrile]
< 100 nM | COc1cc2nc(/C(C#N)=C/c3cc(C)n(-c4sc(Br)cc4C#N)c3C)[nH]c2cn1 [AB24323, (E)-5-bromo-2-(3-(2-cyano-2-(6-methoxy-3H-imidazo[4,5-c]pyridin-2-yl)vinyl)-2,5-dimethyl-1H-pyrrol-1-yl)thiophene-3-carbonitrile]
< 100 nM | COc1cc2nc(/C(C#N)=C/c3cc(C)n(-c4sc(C5CC5)cc4C#N)c3C)[nH]c2cn1 [AB24324, (E)-2-(3-(2-cyano-2-(6-methoxy-3H-imidazo[4,5-c]pyridin-2-yl)vinyl)-2,5-dimethyl-1H-pyrrol-1-yl)-5-cyclopropylthiophene-3-carbonitrile]
< 100 nM | COc1cnc2[nH]c(/C(C#N)=C/c3cc(C)n(-c4sc(C)cc4C#N)c3C)nc2c1 [AB24333, (E)-2-(3-(2-cyano-2-(6-methoxy-3H-imidazo[4,5-b]pyridin-2-yl)vinyl)-2,5-dimethyl-1H-pyrrol-1-yl)-5-methylthiophene-3-carbonitrile]
